Source: patent publication US20110028686A1, “Protein binding miniature proteins” (Yale University, priority 2000, published 2011)
“And” between values parts separate entries of the source, which are not always exact repeats. Equal values may be shown once. Read-outs that look alike come from different tables or passages of the source. Peptide text beside a SMILES is read from it.

Key:
[1] = target: T1, CBP KIX Q661A (Mus musculus, UniProt P45481, Q661A); assay: Equilibrium fluorescence polarization, CBP KIX variant Q661A; format: binding; conditions: 25° C.
T1 construct: made in house; host or cells: E. coli BL21(DE3) pArg

[2] = target: T2, CBP KIX K606A (Mus musculus, UniProt P45481, K606A); assay: Equilibrium fluorescence polarization, CBP KIX variant K606A; format: binding; conditions: 25° C.
T2 construct: made in house; host or cells: E. coli BL21(DE3) pArg

[3] = target: T3, Carbonic anhydrase II (Homo sapiens, UniProt P00918); assay: Fluorescence polarization specificity, carbonic anhydrase II; format: binding; conditions: carbonic anhydrase II as target protein; read-out: Kd CA
T3 construct: purchased Sigma
Text: (§1) Given the myriad protein surfaces present in the cell, the utility of molecules that recognize protein surfaces will depend on their ability to interact selectively with the desired protein.

[4] = target: T4, CBP KIX E655A (Mus musculus, UniProt P45481, E655A); assay: Equilibrium fluorescence polarization, CBP KIX variant E655A; format: binding; conditions: 25° C.
T4 construct: made in house; host or cells: E. coli BL21(DE3) pArg

[5] = target: T5, CBP KIX wild type (Mus musculus, UniProt P45481); assay: Equilibrium fluorescence polarization, wild type CBP KIX; format: binding; conditions: 25° C.
T5 construct: made in house; host or cells: E. coli BL21(DE3) pArg

[6] = target: T6, HisKIX (His-tagged CBP KIX domain) (Mus musculus, UniProt P45481); assay: Equilibrium fluorescence polarization, HisKIX binding; conditions: 25° C.
T6 construct: The CBP KIX-coding region (residues 586 to 672) of pGEX-KT KIX 10-672; made in house; host or cells: E. coli BL21(DE3) pArg

[7] = target: T7, CBP KIX K662A (Mus musculus, UniProt P45481, K662A); assay: Equilibrium fluorescence polarization, CBP KIX variant K662A; format: binding; conditions: 25° C.
T7 construct: made in house; host or cells: E. coli BL21(DE3) pArg

[8] = target: T8, CBP KIX Y658F (Mus musculus, UniProt P45481, Y658F); assay: Equilibrium fluorescence polarization, CBP KIX variant Y658F; format: binding; conditions: 25° C.
T8 construct: made in house; host or cells: E. coli BL21(DE3) pArg

[9] = target: T9, CBP KIX L603A (Mus musculus, UniProt P45481, L603A); assay: Equilibrium fluorescence polarization, CBP KIX variant L603A; format: binding; conditions: 25° C.
T9 construct: made in house; host or cells: E. coli BL21(DE3) pArg

[10] = target: T10, Calmodulin (Homo sapiens, UniProt P0DP23); assay: Fluorescence polarization specificity, calmodulin; format: binding; conditions: calmodulin as target protein; read-out: Kd CalM
T10 construct: purchased Sigma
Text: as §1

[11] = target: T11, CBP KIX LL652-3AA (Mus musculus, UniProt P45481, L652A/L653A); assay: Equilibrium fluorescence polarization, CBP KIX variant LL652-3AA; format: binding; conditions: 25° C.
T11 construct: made in house; host or cells: E. coli BL21(DE3) pArg

[12] = target: T12, CBP KIX Y650A (Mus musculus, UniProt P45481, Y650A); assay: Equilibrium fluorescence polarization, CBP KIX variant Y650A; format: binding; conditions: 25° C.
T12 construct: made in house; host or cells: E. coli BL21(DE3) pArg

[13] = target: T13, CBP KIX I660A (Mus musculus, UniProt P45481, I660A); assay: Equilibrium fluorescence polarization, CBP KIX variant I660A; format: binding; conditions: 25° C.
T13 construct: made in house; host or cells: E. coli BL21(DE3) pArg

[14] = target: T14, CBP KIX Y658A (Mus musculus, UniProt P45481, Y658A); assay: Equilibrium fluorescence polarization, CBP KIX variant Y658A; format: binding; conditions: 25° C.
T14 construct: made in house; host or cells: E. coli BL21(DE3) pArg

[15] = target: T15, CBP KIX I657A (Mus musculus, UniProt P45481, I657A); assay: Equilibrium fluorescence polarization, CBP KIX variant I657A; format: binding; conditions: 25° C.
T15 construct: made in house; host or cells: E. coli BL21(DE3) pArg

[16] = target: Bcl-2 (Homo sapiens, UniProt P10415); assay: Bcl-2 binding by fluorescence emission of fluorescein-labeled peptide; conditions: read-out: Kd for binding to Bcl-2, 4° C., PBS
[17] = Circular dichroism thermal denaturation; format: physicochemical; conditions: far UV circular dichroism at 222 nm
Protocol: Spectra were acquired in 0.5×PBS at 25° C. using a Aviv Model 62DS spectrometer. […] Each data set represents the average of 10 scans. Spectra were background corrected but were not smoothed. (b) Temperature dependence of the CD spectrum of pP53-05. ΘMRE is in units of deg·cm^2·dmol^−1.
Circular dichroism spectra were recorded in PBS on an Aviv 202 CD Spectrometer and were background corrected but not smoothed. Wavelength scans were performed at 4° C. between 200 and 260 nm at 1 nm intervals with a recording time of five seconds at each interval. Bak (72-94), 4099, 4100, 4101, 4102 were used at concentrations of 0.028 mM, 0.0069 mM, 0.0119 mM, 0.014 mM and 0.016 mM respectively. Thermal denaturation curves were measured at 222 nm between 4-98° C. with 2° C. steps and one minute equilibration at each temperature. Peptides were used at the highest concentrations used for the wavelength scans described above. Mean residue elliptcity and percent helicity were calculated from the value at 222 nm after background correction.

[18] = target: T10, Calmodulin; assay: Calmodulin binding by fluorescence emission
[19] = target: T3, Carbonic anhydrase II; assay: Carbonic anhydrase II binding by fluorescence emission; conditions: PBS

T6 sequence (P45481 586-672): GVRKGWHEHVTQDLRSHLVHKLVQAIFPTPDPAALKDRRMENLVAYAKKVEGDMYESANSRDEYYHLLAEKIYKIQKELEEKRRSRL
T14 sequence (P45481 586-665 Y658A limits assumed): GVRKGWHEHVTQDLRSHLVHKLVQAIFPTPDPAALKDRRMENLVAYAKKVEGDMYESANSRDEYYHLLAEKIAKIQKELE
Chain of Bcl-2 (P10415 1-205): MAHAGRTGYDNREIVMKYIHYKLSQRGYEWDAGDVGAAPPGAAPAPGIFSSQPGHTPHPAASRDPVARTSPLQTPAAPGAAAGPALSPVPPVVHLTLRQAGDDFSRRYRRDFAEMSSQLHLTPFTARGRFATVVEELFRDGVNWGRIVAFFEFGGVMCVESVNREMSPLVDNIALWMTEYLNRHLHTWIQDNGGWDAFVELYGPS
T1 sequence (P45481 586-665 Q661A limits assumed): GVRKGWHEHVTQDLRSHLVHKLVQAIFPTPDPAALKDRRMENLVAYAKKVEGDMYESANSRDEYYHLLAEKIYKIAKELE
T11 sequence (P45481 586-665 L652A/L653A): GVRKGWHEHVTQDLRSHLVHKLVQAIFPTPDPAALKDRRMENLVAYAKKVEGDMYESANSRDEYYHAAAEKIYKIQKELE
T7 sequence (P45481 586-665 K662A limits assumed): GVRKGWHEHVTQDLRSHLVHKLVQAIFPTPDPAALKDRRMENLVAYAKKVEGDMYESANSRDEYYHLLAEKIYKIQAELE
T5 sequence (P45481 586-665 limits assumed): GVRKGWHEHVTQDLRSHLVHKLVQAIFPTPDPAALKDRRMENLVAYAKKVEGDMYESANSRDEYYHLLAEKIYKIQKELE
T9 sequence (P45481 586-665 L603A limits assumed): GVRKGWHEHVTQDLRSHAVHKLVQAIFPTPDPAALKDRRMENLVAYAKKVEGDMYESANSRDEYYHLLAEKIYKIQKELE
T12 sequence (P45481 586-665 Y650A limits assumed): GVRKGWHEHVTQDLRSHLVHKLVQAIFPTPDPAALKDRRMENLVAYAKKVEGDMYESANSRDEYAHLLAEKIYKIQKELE
T2 sequence (P45481 586-665 K606A limits assumed): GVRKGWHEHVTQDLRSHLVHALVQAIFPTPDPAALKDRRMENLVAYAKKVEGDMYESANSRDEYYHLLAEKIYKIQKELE
T4 sequence (P45481 586-665 E655A limits assumed): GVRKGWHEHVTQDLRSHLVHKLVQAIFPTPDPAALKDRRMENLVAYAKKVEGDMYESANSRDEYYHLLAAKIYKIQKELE
T15 sequence (P45481 586-665 I657A limits assumed): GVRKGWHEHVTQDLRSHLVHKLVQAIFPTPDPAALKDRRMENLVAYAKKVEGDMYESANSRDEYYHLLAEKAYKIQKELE
T8 sequence (P45481 586-665 Y658F limits assumed): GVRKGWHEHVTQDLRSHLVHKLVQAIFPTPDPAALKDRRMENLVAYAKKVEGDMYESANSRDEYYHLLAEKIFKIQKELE
T13 sequence (P45481 586-665 I660A limits assumed): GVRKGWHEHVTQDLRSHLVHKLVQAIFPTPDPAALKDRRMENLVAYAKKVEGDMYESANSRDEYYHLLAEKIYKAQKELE

Kd [1] [µM] | Kd [2] [µM] | Kd [3] [µM] | Kd [4] [µM] | Kd [5] [µM] | Kd ([6]; fluorescein-labeled phosphopeptide, read-out: Kd HisKIX, phosphorylated peptide (P)) [µM] | Kd ([6]; fluorescein-labeled unphosphorylated peptide, read-out: Kd HisKIX, unphosphorylated peptide (U)) [µM] | Kd [7] [µM] | Kd [8] [µM] | Kd [9] [µM] | Kd [10] | Kd [11] [µM] | Kd [12] [µM] | Kd [13] [µM] | Kd [14] | Kd [15] [µM] | Kd [16] [µM] | Tm, cooperative thermal melt [17] | Kd [18] [µM] | Kd [19] [µM] | Structure (SMILES)
1.1 ± 0.1 | 3.1 ± 0.2 | 106 ± 12 | 0.54 ± 0.05 | 0.61 ± 0.04 | 0.515 ± 0.044 | 12.1 ± 2.4 | 3.9 ± 0.3 | 4.1 ± 0.2 | 3.4 ± 0.5 | 51 µM and 52 µM | 2.9 ± 0.2 | 3 ± 0.3 | 1.1 ± 0.1 | 4.1 µM and 3.9 µM | 2.7 ± 0.1 |  |  |  |  | CC[C@H](C)[C@H](NC(=O)[C@H](Cc1ccc(O)cc1)NC(=O)[C@H](Cc1ccccc1)NC(=O)[C@H](Cc1ccccc1)NC(=O)[C@H](COP(=O)(O)O)NC(=O)[C@H](CC(C)C)NC(=O)[C@H](CCCNC(=N)N)NC(=O)[C@H](CCCNC(=N)N)NC(=O)[C@@H](NC(=O)[C@@H]1CCCN1C(=O)[C@H](C)NC(=O)[C@H](CC(=O)O)NC(=O)[C@H](CC(=O)O)NC(=O)CNC(=O)[C@@H]1CCCN1C(=O)[C@H](Cc1ccc(O)cc1)NC(=O)[C@@H](NC(=O)[C@@H]1CCCN1C(=O)[C@H](CCC(N)=O)NC(=O)[C@H](CO)NC(=O)[C@@H]1CCCN1C(=O)CN)[C@@H](C)O)C(C)C)C(=O)N[C@@H](CC(C)C)C(=O)N[C@@H](CC(C)C)C(=O)N[C@@H](CC(=O)O)C(=O)N[C@@H](CC(C)C)C(=O)N[C@@H](Cc1ccc(O)cc1)C(=O)N[C@@H](CC(C)C)C(=O)N[C@@H](CC(=O)O)C(=O)N[C@@H](C)C(=O)N1CCC[C@H]1C(=O)NCC(=O)N[C@H](C(=O)N[C@@H](CSCC(=O)Nc1ccc2c(c1)C(=O)OC21c2ccc(O)cc2Oc2cc(O)ccc21)C(N)=O)C(C)C [PPKID4]
 |  |  |  |  |  |  |  |  |  |  |  |  |  |  |  | 0.352 ± 0.033 | approximately 65 °C | 25 ± 4 | 8.6 | CC[C@H](C)[C@H](NC(=O)[C@H](CC(C)C)NC(=O)[C@H](CC(=O)O)NC(=O)[C@H](CCC(=O)O)NC(=O)[C@@H](NC(=O)[C@@H]1CCCN1C(=O)[C@H](C)NC(=O)[C@H](CC(=O)O)NC(=O)[C@H](CC(=O)O)NC(=O)CNC(=O)[C@@H]1CCCN1C(=O)[C@H](Cc1ccc(O)cc1)NC(=O)[C@@H](NC(=O)[C@@H]1CCCN1C(=O)[C@H](CCC(N)=O)NC(=O)[C@H](CO)NC(=O)[C@@H]1CCCN1C(=O)CN)[C@@H](C)O)C(C)C)C(=O)N[C@@H](CCCNC(=N)N)C(=O)N[C@@H](Cc1ccccc1)C(=O)N[C@H](C(=O)NCC(=O)N[C@@H](CCCNC(=N)N)C(=O)N[C@@H](CC(C)C)C(=O)N[C@@H](CC(C)C)C(=O)N[C@@H](C)C(=O)N[C@@H](Cc1ccc(O)cc1)C(=O)N[C@@H](Cc1ccccc1)C(=O)NCC(=O)N[C@@H](CC(=O)O)C(=O)N[C@H](C(=O)N[C@H](C(=O)N[C@@H](CC(N)=O)C(=O)N[C@@H](CCCNC(=N)N)C(=O)N[C@@H](CCCNC(=N)N)C(N)=O)[C@@H](C)CC)[C@@H](C)O)C(C)C [p4099] (H-GPSQPTYPGDDAPVEDLIRFVGRLLAYFGDTINRR-NH2)
